# Measured values: ChEMBL document CHEMBL5150050, “Hybrids of small CD4 mimics and gp41-related peptides as dual-target HIV entry inhibitors” (Bioorg Med Chem, 2022)
# Where a SMILES comes first, the peptide text is derived from it. [ ]: non-standard residue; d: D form. Nle = CCCC[C@H](N)C(=O)O
# Legend:
# TZM = assay: Cytotoxicity against human TZM-bl cells; format: toxicity, cell-based
# [1] = tested on: Human immunodeficiency virus 1; assay: Antiviral activity against HIV-1 KP-5mvcR infected in human TZM-bl cells assessed as inhibition of viral entry by measuring reduction in RLU by single round assay; format: functional, organism-based; conditions: Human immunodeficiency virus 1, KP-5mvcR
# [2] = tested on: Human immunodeficiency virus 1; assay: Antiviral activity against HIV-1 KP-5mvcR infected in human TZM-bl cells assessed as inhibition of viral entry by measuring reduction in RLU at 10 nM by single round assay relative to control; format: functional; design: scale not given: the % may be the effect or the level left
Compound,Activity (TZM),IC50 [1] [µM],Activity [2] [%]
N=C(N)NCCCCC(=O)NCCN1CCC(NC(=O)C(=O)Nc2ccc(Cl)cc2)CC1,Non-Toxic,0.145,–
CC[C@H](C)[C@H](NC(=O)[C@H](CCCCN)NC(=O)[C@H](CCCCN)NC(=O)[C@H](CC(=O)O)NC(=O)[C@H](Cc1c[nH]c2ccccc12)NC(=O)[C@H](CCC(=O)O)NC(=O)[C@H](CCC(=O)O)NC(=O)[C@H](Cc1c[nH]c2ccccc12)NC(C)=O)C(=O)N[C@@H](CCC(=O)O)C(=O)N[C@@H](CCC(=O)O)C(=O)N[C@@H](Cc1ccc(O)cc1)C(=O)N[C@H](C(=O)N[C@@H](CCCCN)C(=O)N[C@@H](CCCCN)C(=O)N[C@H](C(=O)N[C@@H](CCC(=O)O)C(=O)N[C@@H](CCC(=O)O)C(=O)N[C@@H](CC(C)C)C(=O)N[C@H](C(=O)N[C@@H](CCCCN)C(=O)N[C@@H](CCCCN)C(=O)N[C@@H](CO)C(=O)N[C@H](CSCC(=O)NCCCC[C@H](NC(=O)[C@H](CO)NC(=O)CNC(=O)CNC(=O)CNC(=O)CNC(=O)CCC(=O)N[C@@H](CCCNC(=N)N)C(=O)NCCN1CCC(NC(=O)C(=O)Nc2ccc(Cl)cc2)CC1)C(N)=O)C(N)=O)[C@@H](C)CC)[C@@H](C)CC)[C@@H](C)O,–,0.15,–
CCCC[C@H](NC(=O)[C@H](Cc1c[nH]c2ccccc12)NC(C)=O)C(=O)N[C@@H](CCC(=O)O)C(=O)N[C@@H](Cc1c[nH]c2ccccc12)C(=O)N[C@@H](CC(=O)O)C(=O)N[C@@H](CCCNC(=N)N)C(=O)N[C@@H](CCCCN)C(=O)N[C@H](C(=O)N[C@@H](CCC(=O)O)C(=O)N[C@@H](CCC(=O)O)C(=O)N[C@@H](Cc1ccc(O)cc1)C(=O)N[C@H](C(=O)N[C@@H](CCCCN)C(=O)N[C@@H](CCCCN)C(=O)N[C@H](C(=O)N[C@@H](CCCCN)C(=O)N[C@@H](CCCCN)C(=O)N[C@@H](CC(C)C)C(=O)N[C@H](C(=O)N[C@@H](CCC(=O)O)C(=O)N[C@@H](CCC(=O)O)C(=O)N[C@@H](CO)C(=O)N[C@@H](CCC(N)=O)C(=O)N[C@@H](CCC(=O)O)C(=O)N[C@@H](CCC(N)=O)C(=O)N[C@@H](CCC(N)=O)C(=O)N[C@@H](CCC(=O)O)C(=O)N[C@@H](CCCCN)C(=O)N[C@@H](CC(N)=O)C(=O)N[C@@H](CCC(=O)O)C(=O)N[C@@H](CCCCN)C(=O)N[C@@H](CCC(=O)O)C(=O)N[C@@H](CC(C)C)C(=O)N[C@@H](CCCCN)C(=O)N[C@H](CSCC(=O)NCc1cn(CCCC[C@H](NC(=O)[C@H](CO)NC(=O)CNC(=O)CNC(=O)CNC(=O)CNC(=O)CCC(=O)N[C@@H](CCCNC(=N)N)C(=O)NCCN2CCC(NC(=O)C(=O)Nc3ccc(Cl)cc3)CC2)C(N)=O)nn1)C(N)=O)[C@@H](C)CC)[C@@H](C)CC)[C@@H](C)O)[C@@H](C)CC,–,0.0055,–
CCCC[C@H](NC(=O)[C@H](Cc1c[nH]c2ccccc12)NC(C)=O)C(=O)N[C@@H](CCC(=O)O)C(=O)N[C@@H](Cc1c[nH]c2ccccc12)C(=O)N[C@@H](CC(=O)O)C(=O)N[C@@H](CCCNC(=N)N)C(=O)N[C@@H](CCCCN)C(=O)N[C@H](C(=O)N[C@@H](CCC(=O)O)C(=O)N[C@@H](CCC(=O)O)C(=O)N[C@@H](Cc1ccc(O)cc1)C(=O)N[C@H](C(=O)N[C@@H](CCCCN)C(=O)N[C@@H](CCCCN)C(=O)N[C@H](C(=O)N[C@@H](CCCCN)C(=O)N[C@@H](CCCCN)C(=O)N[C@@H](CC(C)C)C(=O)N[C@H](C(=O)N[C@@H](CCC(=O)O)C(=O)N[C@@H](CCC(=O)O)C(=O)N[C@@H](CO)C(=O)N[C@@H](CCC(N)=O)C(=O)N[C@@H](CCC(=O)O)C(=O)N[C@@H](CCC(N)=O)C(=O)N[C@@H](CCC(N)=O)C(=O)N[C@@H](CCC(=O)O)C(=O)N[C@@H](CCCCN)C(=O)N[C@@H](CC(N)=O)C(=O)N[C@@H](CCC(=O)O)C(=O)N[C@@H](CCCCN)C(=O)N[C@@H](CCC(=O)O)C(=O)N[C@@H](CC(C)C)C(=O)N[C@@H](CCCCN)C(=O)N[C@H](CSCC(=O)NCCCC[C@H](NC(=O)[C@H](CO)NC(=O)CNC(=O)CNC(=O)CNC(=O)CNC(=O)CCC(=O)N[C@@H](CCCNC(=N)N)C(=O)NCCN1CCC(NC(=O)C(=O)Nc2ccc(Cl)cc2)CC1)C(N)=O)C(N)=O)[C@@H](C)CC)[C@@H](C)CC)[C@@H](C)O)[C@@H](C)CC,–,< 0.01,95.6
CCCC[C@H](NC(=O)[C@H](Cc1c[nH]c2ccccc12)NC(C)=O)C(=O)N[C@@H](CCC(=O)O)C(=O)N[C@@H](Cc1c[nH]c2ccccc12)C(=O)N[C@@H](CC(=O)O)C(=O)N[C@@H](CCCNC(=N)N)C(=O)N[C@@H](CCCCN)C(=O)N[C@H](C(=O)N[C@@H](CCC(=O)O)C(=O)N[C@@H](CCC(=O)O)C(=O)N[C@@H](Cc1ccc(O)cc1)C(=O)N[C@H](C(=O)N[C@@H](CCCCN)C(=O)N[C@@H](CCCCN)C(=O)N[C@H](C(=O)N[C@@H](CCCCN)C(=O)N[C@@H](CCCCN)C(=O)N[C@@H](CC(C)C)C(=O)N[C@H](C(=O)N[C@@H](CCC(=O)O)C(=O)N[C@@H](CCC(=O)O)C(=O)N[C@@H](CO)C(=O)N[C@@H](CCC(N)=O)C(=O)N[C@@H](CCC(=O)O)C(=O)N[C@@H](CCC(N)=O)C(=O)N[C@@H](CCC(N)=O)C(=O)N[C@@H](CCC(=O)O)C(=O)N[C@@H](CCCCN)C(=O)N[C@@H](CC(N)=O)C(=O)N[C@@H](CCC(=O)O)C(=O)N[C@@H](CCCCN)C(=O)N[C@@H](CCC(=O)O)C(=O)N[C@@H](CC(C)C)C(=O)N[C@@H](CCCCN)C(N)=O)[C@@H](C)CC)[C@@H](C)CC)[C@@H](C)O)[C@@H](C)CC (Ac-W[Nle]EWDRKIEEYTKKIKKLIEESQEQQEKNEKELK-NH2),Non-Toxic,0.00064,–
O=C1Nc2ccc(Cl)cc2[C@@](C#CC2CC2)(C(F)(F)F)O1 [EFAVIRENZ],–,0.011,–
Ac-WEEWDKKIEEYTKKIEELIKKS-NH2,Non-Toxic,0.06,–
enfuvirtide,–,0.032,–
